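1) Cells in 96-well plates. 2) Compound, 48 h, 5 concentrations. 3) Linear interpolation between surrounding doses. 4) Unreached endpoint = highest concentration. At the TGI there is no net growth.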
How the values were obtained:
Experiment in all cases: NCI-60 cell line screen, 48 h
HCC-2998 colon = system: HCC-2998 colon
786-0 renal = system: 786-0 renal
HCT-15 colon = system: HCT-15 colon
HL-60(TB) leukemia = system: HL-60(TB) leukemia
EKVX NSCLC = system: EKVX NSCLC
HOP-62 NSCLC = system: HOP-62 NSCLC
SW-620 colon = system: SW-620 colon
HOP-92 NSCLC = system: HOP-92 NSCLC
MDA-MB-435 = system: MDA-MB-435
A498 renal = system: A498 renal
TK-10 renal = system: TK-10 renal
ACHN renal = system: ACHN renal
SNB-19 CNS = system: SNB-19 CNS
IGROV1 ovarian = system: IGROV1 ovarian
HT29 colon = system: HT29 colon
UACC-257 melanoma = system: UACC-257 melanoma
DU-145 prostate = system: DU-145 prostate
SK-MEL-28 melanoma = system: SK-MEL-28 melanoma
NCI-H460 lung = system: NCI-H460 lung
HS 578T breast = system: HS 578T breast
SF-295 CNS = system: SF-295 CNS
SK-MEL-2 melanoma = system: SK-MEL-2 melanoma
MDA-MB-231 breast = system: MDA-MB-231 breast
SF-268 CNS = system: SF-268 CNS
CAKI-1 renal = system: CAKI-1 renal
UACC-62 melanoma = system: UACC-62 melanoma
BT-549 breast = system: BT-549 breast
RXF 393 renal = system: RXF 393 renal
SK-MEL-5 melanoma = system: SK-MEL-5 melanoma
OVCAR-5 ovarian = system: OVCAR-5 ovarian
NCI-H226 lung = system: NCI-H226 lung
U251 CNS = system: U251 CNS
SR leukemia = system: SR leukemia
CCRF-CEM leukemia = system: CCRF-CEM leukemia
OVCAR-8 ovarian = system: OVCAR-8 ovarian
KM12 colon = system: KM12 colon
SNB-75 CNS = system: SNB-75 CNS
OVCAR-4 ovarian = system: OVCAR-4 ovarian
MCF7 breast = system: MCF7 breast
MALME-3M melanoma = system: MALME-3M melanoma
RPMI-8226 leukemia = system: RPMI-8226 leukemia
A549 NSCLC = system: A549 NSCLC
NCI-H522 lung = system: NCI-H522 lung
M14 melanoma = system: M14 melanoma
HCT-116 colon = system: HCT-116 colon
SF-539 CNS = system: SF-539 CNS
PC-3 prostate = system: PC-3 prostate
NCI-H23 lung = system: NCI-H23 lung
OVCAR-3 ovarian = system: OVCAR-3 ovarian
MOLT-4 leukemia = system: MOLT-4 leukemia
T-47D breast = system: T-47D breast
SN12C renal = system: SN12C renal
UO-31 renal = system: UO-31 renal
MDA-N = system: MDA-N
K-562 leukemia = system: K-562 leukemia
LOX IMVI melanoma = system: LOX IMVI melanoma
SK-OV-3 ovarian = system: SK-OV-3 ovarian
COLO 205 colon = system: COLO 205 colon
NCI/ADR-RES ovarian = system: NCI/ADR-RES ovarian

## COc1ccccc1/C=C/c1c(N)ncnc1Nc1cccc(Cl)c1
HCC-2998 colon
  TGI: > 100 µM
786-0 renal
  TGI: 26.6 µM
HCT-15 colon
  TGI: 52.5 µM
HL-60(TB) leukemia
  TGI: 0.969 µM
EKVX NSCLC
  TGI: > 100 µM
HOP-62 NSCLC
  TGI: 40 µM
SW-620 colon
  TGI: > 100 µM
HOP-92 NSCLC
  TGI: 0.588 µM
MDA-MB-435
  TGI: 33.1 µM
A498 renal
  TGI: 30.9 µM
TK-10 renal
  TGI: 44.1 µM
ACHN renal
  TGI: 26 µM
SNB-19 CNS
  TGI: 47.1 µM
IGROV1 ovarian
  TGI: 27.7 µM
HT29 colon
  TGI: 87.2 µM
UACC-257 melanoma
  TGI: 35 µM
DU-145 prostate
  TGI: > 100 µM
SK-MEL-28 melanoma
  TGI: 36.4 µM
NCI-H460 lung
  TGI: 57.1 µM
HS 578T breast
  TGI: 44 µM
SF-295 CNS
  TGI: 65 µM
SK-MEL-2 melanoma
  TGI: 36.5 µM
MDA-MB-231 breast
  TGI: 42.5 µM
SF-268 CNS
  TGI: 38.8 µM
CAKI-1 renal
  TGI: 58.9 µM
UACC-62 melanoma
  TGI: 33.3 µM
BT-549 breast
  TGI: 35.7 µM
RXF 393 renal
  TGI: 38.4 µM
SK-MEL-5 melanoma
  TGI: 43.4 µM
OVCAR-5 ovarian
  TGI: > 100 µM
NCI-H226 lung
  TGI: 49 µM
U251 CNS
  TGI: 34.4 µM
SR leukemia
  TGI: > 100 µM
CCRF-CEM leukemia
  TGI: 1.12 µM
OVCAR-8 ovarian
  TGI: > 100 µM
KM12 colon
  TGI: > 100 µM
SNB-75 CNS
  TGI: 23.6 µM
OVCAR-4 ovarian
  TGI: 34.4 µM
MCF7 breast
  TGI: > 100 µM
MALME-3M melanoma
  TGI: 59.7 µM
RPMI-8226 leukemia
  TGI: 31.2 µM
A549 NSCLC
  TGI: 41.6 µM
NCI-H522 lung
  TGI: 30.5 µM
M14 melanoma
  TGI: 51.8 µM
HCT-116 colon
  TGI: 86.8 µM
SF-539 CNS
  TGI: 35.6 µM
PC-3 prostate
  TGI: 0.97 µM
NCI-H23 lung
  TGI: 47 µM
OVCAR-3 ovarian
  TGI: 59.5 µM
MOLT-4 leukemia
  TGI: > 100 µM
T-47D breast
  TGI: > 100 µM
SN12C renal
  TGI: 30.9 µM
UO-31 renal
  TGI: 57.1 µM
MDA-N
  TGI: 55.8 µM
K-562 leukemia
  TGI: > 100 µM

## CCOC(=O)c1nnsc1NN=C(C)C
HCC-2998 colon
  TGI: > 100 µM
786-0 renal
  TGI: > 100 µM
HCT-15 colon
  TGI: > 100 µM
HL-60(TB) leukemia
  TGI: > 100 µM
EKVX NSCLC
  TGI: > 100 µM
HOP-62 NSCLC
  TGI: > 100 µM
LOX IMVI melanoma
  TGI: > 100 µM
SW-620 colon
  TGI: > 100 µM
MDA-MB-435
  TGI: > 100 µM
A498 renal
  TGI: > 100 µM
TK-10 renal
  TGI: > 100 µM
IGROV1 ovarian
  TGI: > 100 µM
HT29 colon
  TGI: > 100 µM
SK-OV-3 ovarian
  TGI: > 100 µM
UACC-257 melanoma
  TGI: > 100 µM
DU-145 prostate
  TGI: > 100 µM
SK-MEL-28 melanoma
  TGI: > 100 µM
NCI-H460 lung
  TGI: > 100 µM
HS 578T breast
  TGI: > 100 µM
SF-295 CNS
  TGI: > 100 µM
SK-MEL-2 melanoma
  TGI: > 100 µM
MDA-MB-231 breast
  TGI: > 100 µM
SF-268 CNS
  TGI: > 100 µM
CAKI-1 renal
  TGI: > 100 µM
UACC-62 melanoma
  TGI: > 100 µM
BT-549 breast
  TGI: > 100 µM
RXF 393 renal
  TGI: > 100 µM
SK-MEL-5 melanoma
  TGI: > 100 µM
OVCAR-5 ovarian
  TGI: > 100 µM
NCI-H226 lung
  TGI: > 100 µM
U251 CNS
  TGI: > 100 µM
OVCAR-8 ovarian
  TGI: > 100 µM
KM12 colon
  TGI: > 100 µM
SNB-75 CNS
  TGI: > 100 µM
OVCAR-4 ovarian
  TGI: > 100 µM
MALME-3M melanoma
  TGI: > 100 µM
RPMI-8226 leukemia
  TGI: > 100 µM
A549 NSCLC
  TGI: > 100 µM
COLO 205 colon
  TGI: > 100 µM
NCI-H522 lung
  TGI: > 100 µM
M14 melanoma
  TGI: > 100 µM
HCT-116 colon
  TGI: > 100 µM
SF-539 CNS
  TGI: > 100 µM
NCI/ADR-RES ovarian
  TGI: > 100 µM
PC-3 prostate
  TGI: > 100 µM
NCI-H23 lung
  TGI: > 100 µM
OVCAR-3 ovarian
  TGI: > 100 µM
MOLT-4 leukemia
  TGI: > 100 µM
T-47D breast
  TGI: > 100 µM
SN12C renal
  TGI: > 100 µM
UO-31 renal
  TGI: > 100 µM
MDA-N
  TGI: > 100 µM
K-562 leukemia
  TGI: > 100 µM

## CC[C@@H]1CC[C@@H]2[C@H](CC[C@]3(C)[C@@H](O)CC[C@@H]23)[C@H]1CO
HCC-2998 colon
  TGI: > 100 µM
786-0 renal
  TGI: > 100 µM
HCT-15 colon
  TGI: > 100 µM
HL-60(TB) leukemia
  TGI: 85.8 µM
EKVX NSCLC
  TGI: > 100 µM
HOP-62 NSCLC
  TGI: > 100 µM
LOX IMVI melanoma
  TGI: > 100 µM
SW-620 colon
  TGI: > 100 µM
HOP-92 NSCLC
  TGI: > 100 µM
MDA-MB-435
  TGI: > 100 µM
A498 renal
  TGI: > 100 µM
TK-10 renal
  TGI: > 100 µM
ACHN renal
  TGI: > 100 µM
SNB-19 CNS
  TGI: > 100 µM
IGROV1 ovarian
  TGI: > 100 µM
HT29 colon
  TGI: > 100 µM
SK-OV-3 ovarian
  TGI: > 100 µM
UACC-257 melanoma
  TGI: > 100 µM
DU-145 prostate
  TGI: > 100 µM
SK-MEL-28 melanoma
  TGI: > 100 µM
NCI-H460 lung
  TGI: > 100 µM
HS 578T breast
  TGI: > 100 µM
SF-295 CNS
  TGI: > 100 µM
SK-MEL-2 melanoma
  TGI: > 100 µM
MDA-MB-231 breast
  TGI: > 100 µM
SF-268 CNS
  TGI: > 100 µM
CAKI-1 renal
  TGI: > 100 µM
UACC-62 melanoma
  TGI: > 100 µM
BT-549 breast
  TGI: > 100 µM
RXF 393 renal
  TGI: > 100 µM
SK-MEL-5 melanoma
  TGI: > 100 µM
OVCAR-5 ovarian
  TGI: > 100 µM
NCI-H226 lung
  TGI: > 100 µM
U251 CNS
  TGI: > 100 µM
CCRF-CEM leukemia
  TGI: > 100 µM
OVCAR-8 ovarian
  TGI: > 100 µM
KM12 colon
  TGI: > 100 µM
SNB-75 CNS
  TGI: > 100 µM
OVCAR-4 ovarian
  TGI: > 100 µM
MCF7 breast
  TGI: > 100 µM
MALME-3M melanoma
  TGI: > 100 µM
RPMI-8226 leukemia
  TGI: > 100 µM
A549 NSCLC
  TGI: > 100 µM
COLO 205 colon
  TGI: > 100 µM
NCI-H522 lung
  TGI: > 100 µM
M14 melanoma
  TGI: > 100 µM
HCT-116 colon
  TGI: > 100 µM
SF-539 CNS
  TGI: > 100 µM
NCI/ADR-RES ovarian
  TGI: > 100 µM
PC-3 prostate
  TGI: > 100 µM
NCI-H23 lung
  TGI: > 100 µM
OVCAR-3 ovarian
  TGI: > 100 µM
MOLT-4 leukemia
  TGI: > 100 µM
T-47D breast
  TGI: > 100 µM
SN12C renal
  TGI: > 100 µM
UO-31 renal
  TGI: > 100 µM
MDA-N
  TGI: > 100 µM
K-562 leukemia
  TGI: > 100 µM

Source: PubChem BioAssay (NCI)
